Data on 2 compounds can be found in patent publication EP2253266A1, “Method for treating patients with cerebral calcifications” (Assistance Publique - Hôpitaux de Paris, priority 2009, dated 2010).

Data set [1] concerns patients having diffuse cerebral calcifications. As to the kind of experiment: Clinical response to treatment of patients with cerebral calcifications and cerebral folate deficiency (global disability score, subjective evaluations, neurological examination, serial videos). The class given is in vivo, humans. Further details: key to Global score after treatment: 1: Autonomous for all activities of daily living; 2: can walk at least 100 meters alone, needs help for few activities of daily living; 3: can walk unaided about 10 meters, needs help for many activities of daily living; 4: can not walk alone, needs aid for most activities of daily living. The note with it: for Global score after treatment: global score before treatment 3. From the text: Three patients having diffuse cerebral calcifications involving the basal ganglia, cerebellar dentate nuclei, white matter and in one patient the occipital cortex (Table 3) were studied. These neuroradiological findings were indistinguishable from Fahr's Syndrome (IBGC MIM # 114100, # 213600). […] Autonomous for all activities of daily living • 2: can walk at least 100 meters alone, needs help for few activities of daily living • 3: can walk unaided about 10 meters, needs help for many activities of daily living • 4: can not walk alone, needs aid for most activities of daily living. The clinical response to treatment was judged based on the patient's, patient's family, nurses and neurologist subjective evaluations, neurological examination and serial videos. A global disability score was designed to evaluate clinical severity and evolution (see table 3 legend). Table 4: Effect of treatments

For data set [2] the following is noted: quoted from WO 2006/119589; cited from earlier work.
For data set [3] the following is noted: quoted from WO 2006/119589; cited from earlier work. This is another data set of the same source.

Structures are written as SMILES.

Consider `CN1c2c(nc(N)[nH]c2=O)NCC1CNc1ccc(C(=O)NC(CCC(=O)O)C(=O)O)cc1` (stereo not shown) [MTHF, 5-methyltetrahydrofolate], for which the “Global score after treatment” value in data set [1] (patient #1, MTHF 2 mg/kg/d, treatment duration 2 years ½) is on record as 2; in data set [1] (patient #2, MTHF 2 mg/kg/d, treatment duration 14 months), 3; in data set [1] (patient #3, MTHF 1.5 mg/kg/d, treatment duration 1 year), 2. In addition, the bio-availability entry in data set [2] is on record as “high bio-availability”. The toxicity studies result in data set [3] is “no adverse effects”.

For `Nc1nc2c(c(=O)[nH]1)N(C=O)C(CNc1ccc(C(=O)N[C@@H](CCC(=O)O)C(=O)O)cc1)CN2` (stereo partly shown) [Calcium folinate, 5-formyltetrahydrofolic acid], the “other treatments leading to less or only transient improvement” value in data set [1] (patient #1, IVIg 0.4gr/kgX5d every 6weeks) was “Calcium folinate led to marked initial impro-vement that waned after 6 months. IVIg (0.4gr/kgX5d every 6weeks) led to improvement of walking during 4 months”; in data set [1] (patient #3, Calcium folinate 75 mg/d), “Calcium folinate 75 mg/d: same effect than MTHF”.
